Key:
DOT1L [1] = target: T1, DOT1L (Homo sapiens, UniProt Q8TEK3); test: DOT1L fluorescence polarization (FP) displacement assay; format: binding; conditions: FIG. 1
Experimental: Example 13: Cellular Disruptor of Telomeric Silencing 1-Like (DOT1L) Fluorescence Polarization (FP) Displacement Assay
DOT1L FP displacement assays were conducted with inventive bifunctional compounds 2, 3, and 6, and pomalidomide and positive control EPZ5676 at different concentrations [M], measured in [M] per mP.
Target sequence in this assay (Q8TEK3 whole entry, species assumed): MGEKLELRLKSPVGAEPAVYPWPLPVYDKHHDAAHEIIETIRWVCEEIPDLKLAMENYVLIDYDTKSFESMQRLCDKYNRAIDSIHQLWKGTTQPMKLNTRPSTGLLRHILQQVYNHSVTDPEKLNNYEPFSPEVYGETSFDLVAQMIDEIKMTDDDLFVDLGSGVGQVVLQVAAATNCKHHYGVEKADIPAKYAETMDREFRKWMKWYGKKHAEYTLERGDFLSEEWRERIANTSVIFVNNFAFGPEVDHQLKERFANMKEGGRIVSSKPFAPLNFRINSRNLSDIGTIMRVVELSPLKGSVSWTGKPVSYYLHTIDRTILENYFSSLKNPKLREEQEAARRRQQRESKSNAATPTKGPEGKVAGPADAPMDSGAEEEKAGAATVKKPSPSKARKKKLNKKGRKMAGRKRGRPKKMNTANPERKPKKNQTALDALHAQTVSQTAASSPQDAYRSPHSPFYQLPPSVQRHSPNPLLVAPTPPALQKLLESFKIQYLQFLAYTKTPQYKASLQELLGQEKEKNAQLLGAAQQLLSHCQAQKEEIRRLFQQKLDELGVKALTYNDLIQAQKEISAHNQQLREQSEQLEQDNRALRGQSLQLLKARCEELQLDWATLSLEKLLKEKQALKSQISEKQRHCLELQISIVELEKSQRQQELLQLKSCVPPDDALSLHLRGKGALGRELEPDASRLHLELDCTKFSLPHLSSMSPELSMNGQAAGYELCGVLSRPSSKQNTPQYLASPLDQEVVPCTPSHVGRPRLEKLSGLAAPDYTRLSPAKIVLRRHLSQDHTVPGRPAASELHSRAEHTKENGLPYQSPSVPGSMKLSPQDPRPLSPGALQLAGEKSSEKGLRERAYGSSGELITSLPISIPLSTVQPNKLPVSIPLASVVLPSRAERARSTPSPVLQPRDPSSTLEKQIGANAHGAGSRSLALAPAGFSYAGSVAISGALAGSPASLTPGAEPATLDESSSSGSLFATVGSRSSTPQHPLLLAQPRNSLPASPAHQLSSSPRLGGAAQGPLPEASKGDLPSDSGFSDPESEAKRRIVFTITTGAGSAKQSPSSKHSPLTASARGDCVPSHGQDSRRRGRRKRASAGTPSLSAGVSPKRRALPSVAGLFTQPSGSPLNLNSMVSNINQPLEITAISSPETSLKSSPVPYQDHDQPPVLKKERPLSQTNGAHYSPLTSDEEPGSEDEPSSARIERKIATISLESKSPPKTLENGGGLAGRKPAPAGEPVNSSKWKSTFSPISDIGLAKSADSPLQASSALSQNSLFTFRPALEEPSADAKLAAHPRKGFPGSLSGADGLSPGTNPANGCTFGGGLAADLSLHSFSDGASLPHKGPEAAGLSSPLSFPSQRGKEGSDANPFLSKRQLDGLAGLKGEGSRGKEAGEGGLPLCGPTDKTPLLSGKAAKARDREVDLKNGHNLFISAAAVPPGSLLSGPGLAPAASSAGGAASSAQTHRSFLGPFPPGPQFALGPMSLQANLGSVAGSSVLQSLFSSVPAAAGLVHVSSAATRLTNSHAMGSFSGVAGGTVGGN

DOT1L:CRBN = DOT1L:CRBN (Homo sapiens, UniProt Q8TEK3+Q96SW2); test: DOT1L:CRBN-DDB1 dimerization assay (AlphaScreen); format: binding; conditions: FIG. 2, GST-CRBN-DDB1 and 6xHIS DOT1L 125 nM
Experimental: Example 14: DOT1L:Cereblon (CRBN)-DNA Damage-Binding Protein 1 (DDB1)/DOT1L Dimerization Assay
GST-CRBN-DDB1 and DOT1L (6×HIS-tagged) were both diluted to 125 nM in assay buffer (50 mM 2-[4-(2-Hydroxyethyl)piperazin-1-yl]ethane-1-sulfonic acid (HEPES) pH 7.4, 150 mM NaCl, and 0.01% Tween®, 2, 0.1% bovine serum albumin (BSA)), and 20 μL of protein mixture was added to each well of a 384-well AlphaPlate™ (PerkinElmer®). Compounds were then added at 100 nL per well from DMSO stock plates using a Janus®, Workstation (PerkinElmer®). Following a 1-hour incubation at room temperature, 20 μL Nickel Chelate AlphaLISA® Acceptor and Glutathione AlphaLISA® Donor beads (PerkinElmer®) diluted to 20 ng/μl in assay buffer was added to each well. After a 1-hour incubation at room temperature, luminescence was measured on the Envision® 2104 plate reader (PerkinElmer®). Data were analyzed and plotted using GraphPad PRISM v6 and dimerization amplitude, mean, and s.d. values were determined using the ‘Gaussian’ analysis module.
DOT1L:CRBN dimerization by inventive bifunctional compounds 2, 3, and 6, and pomalidomide and EPZ5676 was assessed by AlphaScreen® assay.

EOL1 cells = test: Cell proliferation assay in EOL1 cells (trypan blue cell counts); format: cell-based, human; conditions: FIG. 3, 4B, 6B, 7, 8, 9B
Experimental: Example 15: Cell Proliferation Assays in EOL1 (Human Eosinophilic Leukaemia) Cells with Inventive Bifunctional Compounds
(§1) EOL1 cells were seeded into a 6-well plate at a density of 0.25×10^6 cells/well and then treated compounds with indicated concentration and incubated for the indicated times. After staining with trypan blue, cell counts were performed using a Countess® II FL Automated Cell Counter (ThermoFisher Scientific).

DOT1L [2] = target: T1, DOT1L; test: Western blot of DOT1L degradation in EOL1 cells; format: cell-based; design: degraded DOT1L in EOL1 cells; endogenous in cells; host or cells: EOL1; conditions: FIG. 4A, 6A, 9A
Target sequence in this assay (Q8TEK3 whole entry): as the sequence (Q8TEK3 whole entry, species assumed) above

THP1 cells = test: Cell proliferation assay in THP1 cells (trypan blue cell counts); format: cell-based; conditions: FIG. 12
Experimental: Example 18: Cell Proliferation Assays in THP1 (Acute Monocytic Leukemia) Cells with Inventive Bifunctional Compounds
as §1, with “THP1” for “EOL1”

SEMK2 cells = test: Cell proliferation assay in SEMK2 cells (trypan blue cell counts); format: cell-based; conditions: FIG. 11
Experimental: Example 17: Cell Proliferation Assays in SEMK2 (B Acute Lymphoblastic Leukemia) Cells with Inventive Bifunctional Compounds
as §1, with “SEMK2” for “EOL1”

DOT1L [3] = target: T1, DOT1L; test: Western blot of DOT1L degradation in MV411 cells; format: cell-based; design: endogenous in cells; conditions: FIG. 5A, 10A
Target sequence in this assay (Q8TEK3 whole entry): as the sequence (Q8TEK3 whole entry, species assumed) above

MV411 cells = test: Cell proliferation assay in MV411 cells (trypan blue cell counts); format: cell-based, human; conditions: FIG. 5B, 10B
Experimental: Example 16: Cell Proliferation Assays in MV411 (Human Myelomonocytic Leukemia) Cells with Inventive Bifunctional Compounds
as §1, with “MV411” for “EOL1”

Chain of DOT1L:CRBN (Q8TEK3 whole entry, species assumed): as above
Chain of DOT1L:CRBN (Q96SW2 whole entry, species assumed): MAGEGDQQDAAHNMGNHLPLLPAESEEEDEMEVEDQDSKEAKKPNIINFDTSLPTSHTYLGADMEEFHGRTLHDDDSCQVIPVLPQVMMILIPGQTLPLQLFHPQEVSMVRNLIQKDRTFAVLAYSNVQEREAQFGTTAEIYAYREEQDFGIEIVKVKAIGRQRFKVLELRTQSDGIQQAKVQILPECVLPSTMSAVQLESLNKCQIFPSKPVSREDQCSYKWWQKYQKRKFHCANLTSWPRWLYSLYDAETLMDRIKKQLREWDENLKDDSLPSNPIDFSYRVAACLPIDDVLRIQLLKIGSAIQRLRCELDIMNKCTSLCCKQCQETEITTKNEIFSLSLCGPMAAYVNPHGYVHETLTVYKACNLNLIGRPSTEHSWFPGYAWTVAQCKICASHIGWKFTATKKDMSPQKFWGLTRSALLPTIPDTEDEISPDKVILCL
Chain of DOT1L:CRBN (Q16531 whole entry partner, species assumed): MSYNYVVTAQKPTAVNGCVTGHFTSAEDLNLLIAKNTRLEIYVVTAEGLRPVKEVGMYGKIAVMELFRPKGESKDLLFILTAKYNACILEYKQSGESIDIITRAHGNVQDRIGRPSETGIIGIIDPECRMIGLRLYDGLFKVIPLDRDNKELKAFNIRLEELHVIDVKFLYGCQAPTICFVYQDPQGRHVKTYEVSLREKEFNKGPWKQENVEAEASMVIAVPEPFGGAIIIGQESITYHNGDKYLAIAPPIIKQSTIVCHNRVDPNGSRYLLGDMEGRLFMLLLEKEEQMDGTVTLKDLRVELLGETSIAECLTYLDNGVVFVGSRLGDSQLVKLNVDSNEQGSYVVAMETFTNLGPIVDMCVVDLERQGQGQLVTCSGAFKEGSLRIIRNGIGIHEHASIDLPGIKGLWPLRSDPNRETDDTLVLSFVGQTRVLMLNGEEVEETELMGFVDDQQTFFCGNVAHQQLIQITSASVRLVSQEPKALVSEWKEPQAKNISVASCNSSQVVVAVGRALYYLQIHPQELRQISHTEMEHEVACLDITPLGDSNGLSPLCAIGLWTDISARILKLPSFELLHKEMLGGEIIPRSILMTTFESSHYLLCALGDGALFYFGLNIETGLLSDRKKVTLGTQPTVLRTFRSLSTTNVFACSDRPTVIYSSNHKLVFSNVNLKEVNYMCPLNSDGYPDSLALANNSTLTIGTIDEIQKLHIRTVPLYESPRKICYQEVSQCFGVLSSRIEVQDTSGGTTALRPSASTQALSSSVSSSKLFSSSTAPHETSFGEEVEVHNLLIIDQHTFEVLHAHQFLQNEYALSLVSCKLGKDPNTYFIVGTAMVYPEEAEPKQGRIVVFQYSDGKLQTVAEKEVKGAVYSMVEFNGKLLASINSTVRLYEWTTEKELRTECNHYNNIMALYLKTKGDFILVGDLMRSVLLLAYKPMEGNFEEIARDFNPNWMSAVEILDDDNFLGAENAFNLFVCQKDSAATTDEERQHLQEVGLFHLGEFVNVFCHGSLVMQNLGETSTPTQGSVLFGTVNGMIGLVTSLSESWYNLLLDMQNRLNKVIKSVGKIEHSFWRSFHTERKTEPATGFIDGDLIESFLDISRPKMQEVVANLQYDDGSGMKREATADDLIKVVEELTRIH

Compound	DOT1L binding via displacement of FITC-probe in FP assay (DOT1L [1])	formation of ternary complexes between DOT1L and CRBN (DOT1L:CRBN)	EOL1 cell viability (EOL1 cells)	DOT1L degradation in EOL1 cells (DOT1L [2])	THP1 cell viability (THP1 cells)	SEMK2 cell viability (SEMK2 cells)	DOT1L degradation in MV411 cells (DOT1L [3])	MV411 cell viability (MV411 cells)
CC(C)N(C[C@H]1O[C@@H](n2cnc3c(NCCCCNC(=O)CCCCCCCCCCCCCCCNc4cccc5c4C(=O)N(C4CCC(=O)NC4=O)C5=O)ncnc32)[C@H](O)[C@@H]1O)C1CC(CCc2nc3cc(C(C)(C)C)ccc3[nH]2)C1 (some centres unmarked) [Compound 3]	bound DOT1L via displacement of fluorescein isothiocyanate (FITC)-probe in FP assay	induced the formation of ternary complexes between the DOT1L and CRBN	reduced EOL1 cell viability in a dose dependent manner and at early time points	degraded DOT1L in EOL1 cells and in a dose dependent manner up to 5.0 μM	–	–	–	–
CC(C)N(C[C@H]1O[C@@H](n2ccc3c(NCCCCNC(=O)CCCCCCCCCCCCCCCNc4cccc5c4C(=O)N(C4CCC(=O)NC4=O)C5=O)ncnc32)[C@H](O)[C@@H]1O)C1CC(CCc2nc3cc(C(C)(C)C)ccc3[nH]2)C1 (stereo partly drawn) [Compound 5, N-(4-((7-((2R,3R,4S,5R)-5-(((3-(2-(5-(tert-butyl)-1H-benzo[d]imidazol-2-yl)ethyl)cyclobutyl)(isopropyl)amino)methyl)-3,4-dihydroxytetrahydrofuran-2-yl)-7H-pyrrolo[2,3-d]pyrimidin-4-yl)amino)butyl)-16-((2-(2,6-dioxopiperidin-3-yl)-1,3-dioxoisoindolin-4-yl)amino)hexadecanamide]	–	–	did not reduce EOL1 cell viability in a dose dependent manner and at early time points	–	–	–	–	–
CC(C)N(CCCNC(=O)Nc1ccc(C(C)(C)C)cc1)C[C@H]1O[C@H](n2cnc3c(NCCCCNC(=O)CCCCCCCCCCCCCCCNc4cccc5c4C(=O)N(C4CCC(=O)NC4=O)C5=O)ncnc32)[C@H](O)[C@@H]1O (stereo partly drawn) [Compound 6, N-(4-((9-((2S,3R,4S,5R)-5-(((3-(3-(4-(tert-butyl)phenyl)ureido)propyl)(isopropyl)amino)methyl)-3,4-dihydroxytetrahydrofuran-2-yl)-9H-purin-6-yl)amino)butyl)-16-((2-(2,6-dioxopiperidin-3-yl)-1,3-dioxoisoindolin-4-yl)amino)hexadecanamide]	bound DOT1L via displacement of fluorescein isothiocyanate (FITC)-probe in FP assay	induced the formation of ternary complexes between the DOT1L and CRBN	reduced EOL1 cell viability in a dose dependent manner and at early time points	degraded DOT1L in EOL1 cells and in a dose dependent manner up to 5.0 μM	reduced THP1 cell viability in a dose dependent manner and at early time points	reduced SEMK2 cell viability in a dose dependent manner and at early time points	degraded DOT1L in MV411 cells and in a dose dependent manner up to 5.0 μM	reduced MV411 cell viability in a dose dependent manner and at early time points
Cc1ncsc1-c1ccc(CNC(=O)[C@H]2C[C@H](O)CN2C(=O)[C@H](NC(=O)CCCCCCCNC(=O)CCCC(=O)NCCCCNc2ncnc3c2ncn3[C@@H]2O[C@H](CN(C(C)C)C3CC(CCc4nc5cc(C(C)(C)C)ccc5[nH]4)C3)[C@@H](O)[C@H]2O)C(C)(C)C)cc1 (stereo partly drawn) [Compound 4, N1-(4-((9-((2R,3R,4S,5R)-5-(((3-(2-(5-(tert-butyl)-1H-benzo[d]imidazol-2-yl)ethyl)cyclobutyl)(isopropyl)amino)methyl)-3,4-dihydroxytetrahydrofuran-2-yl)-9H-purin-6-yl)amino)butyl)-N5-(8-(((R)-1-((2R,4S)-4-hydroxy-2-((4-(4-methylthiazol-5-yl)benzyl)carbamoyl)pyrrolidin-1-yl)-3,3-dimethyl-1-oxobutan-2-yl)amino)-8-oxooctyl)glutaramide]	–	–	did not reduce EOL1 cell viability in a dose dependent manner	–	–	–	–	–
CC(C)N(C[C@H]1O[C@@H](n2cnc3c(NCCCCNC(=O)CCCCCCCCCCCCCCCNc4cccc5c4C(=O)N(C4CCC(=O)NC4=O)C5=O)ncnc32)[C@H](O)[C@@H]1O)C1CC(CCc2nc3cc(C(C)(C)C)ccc3[nH]2)C1 (stereo partly drawn) [Compound 2, N-(4-((9-((2R,3R,4S,5R)-5-((3-(2-(5-(tert-butyl)-1H-benzo[d]imidazol-2-yl)ethyl)cyclobutyl)(isopropyl)amino)methyl)-3,4-dihydroxytetrahydrofuran-2-yl)-9H-purin-6-yl)amino)butyl)-16-((2-(2,6-dioxopiperidin-3-yl)-1,3-dioxoisoindolin-4-ylamino)hexadecanamide]	bound DOT1L via displacement of fluorescein isothiocyanate (FITC)-probe in FP assay	induced the formation of ternary complexes between the DOT1L and CRBN	reduced EOL1 cell viability in a dose dependent manner and at early time points	degraded DOT1L in EOL1 cells and in a dose dependent manner up to 2.5 μM	–	–	degraded DOT1L in MV411 cells and in a dose dependent manner up to 10.0 μM	reduced MV411 cell viability in a dose dependent manner and at early time points

— patent US20240409574A1, “SMALL MOLECULES FOR DOT1L DEGRADATION AND USES THEREOF” (DANA-FARBER CANCER INSTITUTE, INC., priority 2021, published 2024)
